According to publication PMC11277489, “Novel Piperazine Derivatives of Vindoline as Anticancer Agents” (International Journal of Molecular Sciences, 2024):

These compounds were tested on SN12C (assay: NCI60 five-dose screen, Renal Cancer). Conditions: Homo sapiens, Renal Cancer, five-dose screen, read-out: GI50.
Format: cell-based

Compound	GI50 [µM]
CC[C@]12C=CCN3CC[C@@]4(c5ccc(OC)cc5N(C)[C@H]4[C@@](O)(C(=O)OC)[C@@H]1OC(=O)CCCN1CCN(Cc4ccc(F)cc4)CC1)[C@@H]32 [Compound 24]	8.32

What follows are compounds tested on DU-145 (assay: NCI60 five-dose screen, Prostate Cancer). Conditions: Homo sapiens; DU-145, Prostate Cancer; five-dose screen; read-out: GI50.
Format: cell-based

Compound	GI50 [µM]
CC[C@]12C=CCN3CC[C@@]4(c5ccc(OC)cc5N(C)[C@H]4[C@@](O)(C(=O)OC)[C@@H]1OC(=O)CCCN1CCN(Cc4ccc(F)cc4)CC1)[C@@H]32 [Compound 24]	10.5

Each compound was assayed on SK-OV-3 (assay: NCI60 five-dose screen, Ovarian Cancer). Conditions: Homo sapiens; SK-OV-3, Ovarian Cancer; five-dose screen; read-out: GI50.
Format: cell-based

Compound	GI50 [µM]
CC[C@]12C=CCN3CC[C@@]4(c5ccc(OC)cc5N(C)[C@H]4[C@@](O)(C(=O)OC)[C@@H]1OC(=O)CCCN1CCN(Cc4ccc(F)cc4)CC1)[C@@H]32 [Compound 24]	12

The compounds below were run on UACC-62 (assay: NCI60 five-dose screen, Melanoma). Conditions: Homo sapiens; UACC-62, Melanoma; five-dose screen; read-out: GI50.
Format: cell-based

Compound	GI50 [µM]
CC[C@]12C=CCN3CC[C@@]4(c5ccc(OC)cc5N(C)[C@H]4[C@@](O)(C(=O)OC)[C@@H]1OC(=O)CCCN1CCN(Cc4ccc(F)cc4)CC1)[C@@H]32 [Compound 24]	11.5

These compounds were tested on UO-31 (assay: NCI60 five-dose screen, Renal Cancer). Conditions: Homo sapiens; UO-31, Renal Cancer; five-dose screen; read-out: GI50.
Format: cell-based

Compound	GI50 [µM]
CC[C@]12C=CCN3CC[C@@]4(c5ccc(OC)cc5N(C)[C@H]4[C@@](O)(C(=O)OC)[C@@H]1OC(=O)CCCN1CCN(Cc4ccc(F)cc4)CC1)[C@@H]32 [Compound 24]	3.09

These compounds were tested on NCI-H23 (assay: NCI60 five-dose screen, Non-small Cell Lung Cancer). Conditions: Homo sapiens; NCI-H23, Non-small Cell Lung Cancer; five-dose screen; read-out: GI50.
Format: cell-based

Compound	GI50 [µM]
CC[C@]12C=CCN3CC[C@@]4(c5ccc(OC)cc5N(C)[C@H]4[C@@](O)(C(=O)OC)[C@@H]1OC(=O)CCCN1CCN(Cc4ccc(F)cc4)CC1)[C@@H]32 [Compound 24]	13.2

What follows are compounds tested on MALME-3M (assay: NCI60 five-dose screen, Melanoma). Conditions: Homo sapiens; MALME-3M, Melanoma; five-dose screen; read-out: GI50.
Format: cell-based

Compound	GI50 [µM]
CC[C@]12C=CCN3CC[C@@]4(c5ccc(OC)cc5N(C)[C@H]4[C@@](O)(C(=O)OC)[C@@H]1OC(=O)CCCN1CCN(Cc4ccc(F)cc4)CC1)[C@@H]32 [Compound 24]	2.29

What follows are compounds tested on SF-295 (assay: NCI60 five-dose screen, CNS Cancer). Conditions: Homo sapiens; SF-295, CNS Cancer; five-dose screen; read-out: GI50.
Format: cell-based

Compound	GI50 [µM]
CC[C@]12C=CCN3CC[C@@]4(c5ccc(OC)cc5N(C)[C@H]4[C@@](O)(C(=O)OC)[C@@H]1OC(=O)CCCN1CCN(Cc4ccc(F)cc4)CC1)[C@@H]32 [Compound 24]	12.6

What follows are compounds tested on 60 human tumor cell lines (NCI60) (assay: NCI60 five-dose screen, whole panel and sub-panel means). Conditions: Homo sapiens, 60 cell, mean over all 60 cell lines; read-out: GI50 Mean.
Format: cell-based

Compound	GI50 [µM]
CC[C@]12C=CCN3CC[C@@]4(c5ccc(OC)cc5N(C)[C@H]4[C@@](O)(C(=O)OC)[C@@H]1OC(=O)CCCN1CCN(Cc4ccc(F)cc4)CC1)[C@@H]32 [Compound 24]	6.84

Same assay, conditions: Homo sapiens, mean over Breast Cancer panel; read-out: GI50 Mean

Compound	GI50 [µM]
CC[C@]12C=CCN3CC[C@@]4(c5ccc(OC)cc5N(C)[C@H]4[C@@](O)(C(=O)OC)[C@@H]1OC(=O)CCCN1CCN(Cc4ccc(F)cc4)CC1)[C@@H]32 [Compound 24]	4.25

Same assay, conditions: Homo sapiens, mean over CNS Cancer panel; read-out: GI50 Mean

Compound	GI50 [µM]
CC[C@]12C=CCN3CC[C@@]4(c5ccc(OC)cc5N(C)[C@H]4[C@@](O)(C(=O)OC)[C@@H]1OC(=O)CCCN1CCN(Cc4ccc(F)cc4)CC1)[C@@H]32 [Compound 24]	8.08

Same assay, conditions: Homo sapiens, mean over Colon Cancer panel; read-out: GI50 Mean

Compound	GI50 [µM]
CC[C@]12C=CCN3CC[C@@]4(c5ccc(OC)cc5N(C)[C@H]4[C@@](O)(C(=O)OC)[C@@H]1OC(=O)CCCN1CCN(Cc4ccc(F)cc4)CC1)[C@@H]32 [Compound 24]	6.09

Same assay, conditions: Homo sapiens, mean over Leukemia panel; read-out: GI50 Mean

Compound	GI50 [µM]
CC[C@]12C=CCN3CC[C@@]4(c5ccc(OC)cc5N(C)[C@H]4[C@@](O)(C(=O)OC)[C@@H]1OC(=O)CCCN1CCN(Cc4ccc(F)cc4)CC1)[C@@H]32 [Compound 24]	3.19

Same assay, conditions: Homo sapiens, mean over Melanoma panel; read-out: GI50 Mean

Compound	GI50 [µM]
CC[C@]12C=CCN3CC[C@@]4(c5ccc(OC)cc5N(C)[C@H]4[C@@](O)(C(=O)OC)[C@@H]1OC(=O)CCCN1CCN(Cc4ccc(F)cc4)CC1)[C@@H]32 [Compound 24]	5.92

Same assay, conditions: Homo sapiens, mean over Non-small Cell Lung Cancer panel; read-out: GI50 Mean

Compound	GI50 [µM]
CC[C@]12C=CCN3CC[C@@]4(c5ccc(OC)cc5N(C)[C@H]4[C@@](O)(C(=O)OC)[C@@H]1OC(=O)CCCN1CCN(Cc4ccc(F)cc4)CC1)[C@@H]32 [Compound 24]	9.83

Same assay, conditions: Homo sapiens, mean over Ovarian Cancer panel; read-out: GI50 Mean

Compound	GI50 [µM]
CC[C@]12C=CCN3CC[C@@]4(c5ccc(OC)cc5N(C)[C@H]4[C@@](O)(C(=O)OC)[C@@H]1OC(=O)CCCN1CCN(Cc4ccc(F)cc4)CC1)[C@@H]32 [Compound 24]	10.1

Same assay, conditions: Homo sapiens, mean over Prostate Cancer panel; read-out: GI50 Mean

Compound	GI50 [µM]
CC[C@]12C=CCN3CC[C@@]4(c5ccc(OC)cc5N(C)[C@H]4[C@@](O)(C(=O)OC)[C@@H]1OC(=O)CCCN1CCN(Cc4ccc(F)cc4)CC1)[C@@H]32 [Compound 24]	7.32

Same assay, conditions: Homo sapiens, mean over Renal Cancer panel; read-out: GI50 Mean

Compound	GI50 [µM]
CC[C@]12C=CCN3CC[C@@]4(c5ccc(OC)cc5N(C)[C@H]4[C@@](O)(C(=O)OC)[C@@H]1OC(=O)CCCN1CCN(Cc4ccc(F)cc4)CC1)[C@@H]32 [Compound 24]	5.58

What follows are compounds tested on HCT-116 (assay: NCI60 five-dose screen, Colon Cancer). Conditions: Homo sapiens; HCT-116, Colon Cancer; five-dose screen; read-out: GI50.
Format: cell-based

Compound	GI50 [µM]
CC[C@]12C=CCN3CC[C@@]4(c5ccc(OC)cc5N(C)[C@H]4[C@@](O)(C(=O)OC)[C@@H]1OC(=O)CCCN1CCN(Cc4ccc(F)cc4)CC1)[C@@H]32 [Compound 24]	5.62

What follows are compounds tested on 786–0 (assay: NCI60 five-dose screen, Renal Cancer). Conditions: Homo sapiens; 786–0, Renal Cancer; five-dose screen; read-out: GI50.
Format: cell-based

Compound	GI50 [µM]
CC[C@]12C=CCN3CC[C@@]4(c5ccc(OC)cc5N(C)[C@H]4[C@@](O)(C(=O)OC)[C@@H]1OC(=O)CCCN1CCN(Cc4ccc(F)cc4)CC1)[C@@H]32 [Compound 24]	6.31

What follows are compounds tested on A498 (assay: NCI60 five-dose screen, Renal Cancer). Conditions: Homo sapiens; A498, Renal Cancer; five-dose screen; read-out: GI50.
Format: cell-based

Compound	GI50 [µM]
CC[C@]12C=CCN3CC[C@@]4(c5ccc(OC)cc5N(C)[C@H]4[C@@](O)(C(=O)OC)[C@@H]1OC(=O)CCCN1CCN(Cc4ccc(F)cc4)CC1)[C@@H]32 [Compound 24]	12.9

These compounds were tested on COLO 205 (assay: NCI60 five-dose screen, Colon Cancer). Conditions: Homo sapiens; COLO 205, Colon Cancer; five-dose screen; read-out: GI50.
Format: cell-based

Compound	GI50 [µM]
CC[C@]12C=CCN3CC[C@@]4(c5ccc(OC)cc5N(C)[C@H]4[C@@](O)(C(=O)OC)[C@@H]1OC(=O)CCCN1CCN(Cc4ccc(F)cc4)CC1)[C@@H]32 [Compound 24]	1.95
